Here are results for 3 molecules from PMC11050823, “The Cyclic Imine Core Common to the Marine Macrocyclic Toxins Is Sufficient to Dictate Nicotinic Acetylcholine Receptor Antagonism” (Marine Drugs, 2024).

Entries after “also recorded” stand apart in the source; their conditions may differ. Like-named read-outs stand apart in the source and are kept apart here. Marks after values point to notes of the source that are not given here.

The target in assay [1] is T1, human neuronal α4β2 nAChR (Homo sapiens, UniProt P17787+P43681).
T1 construct: expressed in transfected cells; host or cells: Xenopus laevis oocytes; cDNAs in pRc/CMV vector
As to the kind of experiment: Automated TEVC recording of ACh-evoked currents in Xenopus oocytes expressing human α4β2 nAChR. It is filed as cell-based. To be noted: for recovery of the ACh-evoked current after washout of bound spiroimine: 10 µM spiroimine, wash; for Hill Slope: concentration-inhibition curve, ACh 150 µM; for Hill Slope / IC50: 95% confidence interval in parentheses; for IC50: inhibition of ACh-evoked current, ACh 150 µM (EC50), −60 mV. The text has this:
Functional analysis of the (±)-4 racemate and (+)-4 R and (−)-4 S enantiomers used either manual or automated two-electrode voltage-clamp (TEVC) recordings on Xenopus laevis oocytes at −60 mV holding membrane potential. The oocytes were either micro-transplanted with Torpedo α1_2βγδ-enriched electrocyte membranes or transfected with human α7 or α4β2-encoding cDNAs. When applied alone (see Experimental Procedures), none of the three spiroimines induced nAChR channel opening, thereby discarding any agonistic activity toward these nAChR subtypes. Instead, when applied together with ACh at its EC50 concentration for each nAChR subtype, all three spiroimines clearly behaved as nicotinic antagonists, whose potency depended on the receptor subtype examined (Figure 2; Table 1).
The sources for live animals and biological materials, the procedures for nAChR microtransplantation and expression in oocytes, and the procedures for manual (α1_2βγδ nAChR) and automated (α7 and α4β2 nAChRs) TEVC recording are detailed in Appendix C. […] Then, the oocyte was perfused for 45 s with the tested spiroimine at a given concentration, immediately followed by the co-application of ACh and the spiroimine at the same concentrations and times as indicated above. The oocyte was washed with Ringer’s solution, and then recovery of the ACh-evoked current was recorded.
The concentration–inhibition curves were analyzed as previously detailed using the equation I = Imax [L]^nH/(EC50^nH + [L]^nH) (Equation (1)), where I is the measured agonist-evoked current, [L] is the agonist concentration, EC50 is the agonist concentration that evoked half the maximal current (I^max), and nH is the Hill coefficient. For antagonist inhibition, current (I) values were normalized to the I^max value recorded from the same oocyte to yield the fractional (%) response data. IC50 values were established from the concentration–response curves by fitting to the equation F = 1/[1 + ([X]/IC50)^nH] (Equation (2)), where F is the fractional response obtained in the presence of the inhibitor at concentration [X], and IC50 is the inhibitor concentration reducing the ACh-evoked amplitude by half. Data analysis was performed without constraints as Log[spiroimine] versus response (three parameters), with a Hill slope ~1. Statistical significance of differences between the control and test values was assessed using either the two-tailed Student’s “t” test or the Kolmogorov–Smirnov two-sample test and p < 0.05.
Torpedo membranes containing α1_2βγδ nAChR were microtransplanted into the oocyte cytoplasm by microinjecting a membrane suspension (50 nL at 2.5 µg/µL, i.e., 125 ng total protein, in 5 mM glycine) with an electronic micro-injector (Nanoliter2000 Micro4 Controller, World Precision Instruments Inc., Hertfordshire, UK) mounted on a microscope. Human α7 and α4β2 nAChRs were expressed through microinjection, into the oocyte nucleus, of α7 mRNA and of a 1:1 (w/w) mixture of α4 and β2 cDNAs (a ratio favoring expression of the α4_3β2_2 population over the α4_2β2_3 population) (50 nL at 1 µg/µL) in a pRc/CMV expression vector (Invitrogen). Oocytes were maintained at 18 °C and TEVC recordings were performed 1–4 days later in a room with controlled temperature (20 °C).
Automated TEVC on α7 and α4β2 nAChR oocytes was performed using a HiClamp system (Multi Channel Systems, GmbH., Reutlingen, Germany). Oocytes free of follicular cells were transferred from the 96-wells of the oocyte microplate to a recording basket carrying the reference bath electrode. Oocytes were automatically impaled and clamped at a holding potential of −60 mV using borosilicate glass microelectrodes of 0.5–5 MΩ tip resistances, filled with a 1:1 (v/v) mixture of KCl 1 M and KAc 1 M. The clamped oocytes were exposed twice or thrice to ACh by incubation into a well containing ACh (at the EC50 for the assayed nAChR subtype) to obtain a control IACh peak amplitude. […]

In another assay the target is T2, L-AChBP (Lymnaea stagnalis, UniProt P58154).
T2 construct: made in house; host or cells: stably transfected HEK293S-GnTI- cells
As to the kind of experiment: Stopped-flow Trp fluorescence kinetic and equilibrium binding to purified L-AChBP. To be noted: for Kd / kon / koff: L-AChBP. As for the experimental part:
(§1) Equilibrium dissociation constants were determined either from ratios (Kd/(koff/kon)) of rate constants determined using multiple kinetic means (kon, koff, koff/GAL) or directly from stopped-flow measurements (Kd/SFeq, Kd/SPAeq) (see Experimental Procedures).
(§2) The procedures for stable expression and purification of A- and L-AChBPs are described in Appendix D. Rate constants for association (kon) and dissociation (koff) were determined by multiple kinetic means, largely as previously described. Measurement of kon and koff values entailed the direct admixture of reactants and monitoring the quenching of AChBP native Trp fluorescence. Individual rate constants were determined from linear regression of the experimental mono-exponential decay of Trp fluorescence intensity (kobs) using the linear “approach-to-equilibrium” relationship kobs = kon[spiroimine] + koff (Equation (3)). Additional measurements of koff (koff/GAL) employed stopped-flow measurement of the rate of occupation of free AChBP binding sites by a competing ligand (gallamine, used in large excess relative to its Kd) to form a non-quenching gallamine-AChBP complex. Equilibrium dissociation constants were determined either from the ratios of rate constants (Kd/(koff/kon)), or from stopped-flow measurements of the rates of gallamine or epibatidine binding to pre-equilibrated spiroimine-AChBP complexes formed using increasing spiroimine concentrations (Kd/SFeq), or by the scintillation proximity assay (SPA) where spiroimine competition against the binding of [^3H]epibatidine (to L-AChBP) or [^3H]methyllycaconitine (to A-AChBP) was monitored at equilibrium (Kd/SPAeq). […] The time course of [^3H]ligand binding was monitored over several hours.
A- and L-AChBP, flanked with an N-terminal FLAG epitope with residues numbered (-8)[…](0), were expressed as soluble, exported proteins using synthetic cDNA and stably-transfected HEK293S-GnTI^− cells selected for G418 resistance, and cultured in Dulbecco’s modified Eagle’s medium (MediaTech CellGro, Albany, NY, USA) containing fetal bovine serum (FBS) 2% (v/v). The conditioned medium was collected every 1–3 days for up to 4 weeks, supplemented with NaN3 0.02% (w/v) and stored at 4 °C. AChBPs were purified on immobilized anti-FLAG M2 antibody (Sigma-Aldrich) with elution using FLAG peptide 100 μg/mL in TRIS-HCl 50 mM pH 7.4, NaCl 150 mM, NaN3 0.02% (w/v). Purified proteins were dialyzed against the same buffer, concentrated by ultrafiltration, filtered on a 0.22 µm membrane, and stored on ice at 4 °C.

Another assay addresses A-AChBP (Aplysia californica, UniProt Q8WSF8). As to the kind of experiment: Scintillation proximity assay, competition against [3H]methyllycaconitine binding to A-AChBP. Further details: made in house; host or cells: stably transfected HEK293S-GnTI- cells. On the procedure:
as §1, §2
A- and L-AChBP, flanked with an N-terminal FLAG epitope with residues numbered (-8)[…](0), were expressed as soluble, exported proteins using synthetic cDNA and stably-transfected HEK293S-GnTI^− cells selected for G418 resistance, and cultured in Dulbecco’s modified Eagle’s medium (MediaTech CellGro, Albany, NY, USA) containing fetal bovine serum (FBS) 2% (v/v). […]

The mark [2] stands for this setting: calculated from the rate constants, read-out: Kd/(koff/kon).
Setting [3] is: quenching of native Trp fluorescence.
Setting [4] is: quenching of native Trp fluorescence, read-out: koff (converted).
Where [5] appears, read: stopped-flow on pre-equilibrated complexes, single experiment in triplicate, read-out: Kd/SFeq.
[6] abbreviates: stopped-flow with competing gallamine in large excess, read-out: koff/GAL (converted).
[7] abbreviates: read-out: Kd values (range of magnitude).

T1 sequence (P43681 29-627 limits assumed): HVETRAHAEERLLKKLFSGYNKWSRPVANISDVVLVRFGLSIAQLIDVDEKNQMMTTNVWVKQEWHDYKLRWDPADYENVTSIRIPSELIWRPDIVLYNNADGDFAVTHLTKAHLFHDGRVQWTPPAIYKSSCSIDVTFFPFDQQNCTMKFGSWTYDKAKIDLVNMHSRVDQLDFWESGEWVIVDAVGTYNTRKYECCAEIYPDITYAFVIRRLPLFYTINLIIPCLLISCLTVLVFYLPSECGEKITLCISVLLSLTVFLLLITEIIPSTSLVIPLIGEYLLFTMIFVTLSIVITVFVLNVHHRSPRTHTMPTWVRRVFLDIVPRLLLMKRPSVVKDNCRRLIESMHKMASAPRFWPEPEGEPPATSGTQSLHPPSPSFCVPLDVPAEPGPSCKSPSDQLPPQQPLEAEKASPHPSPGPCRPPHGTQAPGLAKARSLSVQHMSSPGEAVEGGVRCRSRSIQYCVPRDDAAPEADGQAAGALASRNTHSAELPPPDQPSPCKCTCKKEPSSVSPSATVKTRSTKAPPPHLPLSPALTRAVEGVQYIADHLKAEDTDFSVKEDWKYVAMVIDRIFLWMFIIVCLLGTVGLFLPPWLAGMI
T1 sequence (P17787 26-502): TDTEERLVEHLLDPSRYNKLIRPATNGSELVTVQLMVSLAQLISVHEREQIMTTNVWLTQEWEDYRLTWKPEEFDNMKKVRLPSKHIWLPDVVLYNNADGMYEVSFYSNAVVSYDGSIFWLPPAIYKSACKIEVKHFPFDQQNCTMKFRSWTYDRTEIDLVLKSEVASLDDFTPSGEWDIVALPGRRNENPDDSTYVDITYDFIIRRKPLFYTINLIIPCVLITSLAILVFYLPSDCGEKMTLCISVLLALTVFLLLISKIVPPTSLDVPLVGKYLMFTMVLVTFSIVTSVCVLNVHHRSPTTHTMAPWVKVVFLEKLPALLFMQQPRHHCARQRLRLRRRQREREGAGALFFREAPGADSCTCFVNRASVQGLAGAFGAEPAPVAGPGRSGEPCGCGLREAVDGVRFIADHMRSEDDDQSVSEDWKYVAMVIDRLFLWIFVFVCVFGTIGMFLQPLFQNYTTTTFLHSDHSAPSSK
Sequence of A-AChBP (Q8WSF8 entry or part of it): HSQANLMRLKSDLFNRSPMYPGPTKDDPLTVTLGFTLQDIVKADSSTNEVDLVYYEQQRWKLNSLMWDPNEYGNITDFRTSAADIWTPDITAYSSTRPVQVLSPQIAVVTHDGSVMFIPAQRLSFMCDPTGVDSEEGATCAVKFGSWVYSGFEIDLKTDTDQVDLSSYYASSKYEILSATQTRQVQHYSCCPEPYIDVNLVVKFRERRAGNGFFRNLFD
T2 sequence (P58154 20-229): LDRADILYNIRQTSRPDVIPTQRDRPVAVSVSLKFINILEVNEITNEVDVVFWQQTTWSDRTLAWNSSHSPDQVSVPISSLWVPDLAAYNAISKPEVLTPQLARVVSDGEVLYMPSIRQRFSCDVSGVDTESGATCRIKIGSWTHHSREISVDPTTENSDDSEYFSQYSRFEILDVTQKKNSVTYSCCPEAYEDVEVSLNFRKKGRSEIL

As to `CC1=NCCCC12CCCCC21OCCO1` (racemic) [Racemic (±)-4, 7-methyl-1,4-dioxa-8-azadispiro[4.0.5.4]pentadec-7-ene], the “recovery of the ACh-evoked current after washout of bound spiroimine” value in assay [1] was “fast reversibility; also recorded: fast and complete”. Moreover, in assay [1], the “Hill Slope” value is on record as 1.08 (0.86–1.29) ^b. Besides, the IC50 in assay [1] was 6960 nM. Further, the Kd on L-AChBP (setting [2]) is 1700 nM; at L-AChBP (stopped-flow on pre-equilibrated complexes, biphasic curve, read-out: Kd/SFeq, second constant from a biphasic curve), 15000 nM; at L-AChBP (setting [5]), 320 nM; on A-AChBP it was 2400 ± 1500 nM. Also, on L-AChBP (setting [3]), the on-rate constant (kon) is 6e+07 M⁻¹ s⁻¹. Further, the koff at L-AChBP (setting [4]) was 103 s⁻¹; on L-AChBP (setting [6]), 112 s⁻¹.

As for `CC1=NCCC[C@@]12CCCCC21OCCO1` [Spiroimine (−)-4 S, 7-methyl-1,4-dioxa-8-azadispiro[4.0.5.4]pentadec-7-ene], the “Hill Slope” value in assay [1] is 0.53 (0.32–0.74) ^b. Also, the IC50 in assay [1] came out at 1410 nM. Besides, the Kd is 410 nM at L-AChBP (setting [2]), 320 nM at L-AChBP (setting [5]), ~100 nM at L-AChBP (setting [7]) and 2400 ± 500 nM on A-AChBP. Also, on L-AChBP (setting [3]), the kon was 1.3e+08 M⁻¹ s⁻¹. Moreover, the koff at L-AChBP (setting [4]) was 53.3 s⁻¹; at L-AChBP (setting [6]) it was 103 s⁻¹.

On to `CC1=NCCC[C@]12CCCCC21OCCO1` [Spiroimine (+)-4 R, 7-methyl-1,4-dioxa-8-azadispiro[4.0.5.4]pentadec-7-ene], for which, in assay [1], the “recovery of the ACh-evoked current after washout of bound spiroimine” value was “fast and complete”; the “Hill Slope” value is 0.83 (0.15–1.52) ^b; the IC50 came out at 9310 nM. In assay [1] (spiroimine applied alone), the “agonistic activity (nAChR channel opening)” value was “elicited no inward current per se”. For the same molecule, the “higher affinity compared with the (−)-4 S enantiomer” value in assay [1] (α4β2 nAChR, from Table 1) was “ca. 5 fold”. Further, the “higher affinity compared to enantiomer (−)-4 S” value at L-AChBP (L-AChBP (text: the two AChBPs)) is reported as “ca. 2 fold”. Moreover, the Kd at L-AChBP (setting [5]) worked out at 12000 nM. For the same molecule, the Kd on L-AChBP (setting [7]) is ~10000 nM. The Kd at A-AChBP is 2300 ± 400 nM.
